In patent publication US20240308968A1, “FUNGICIDAL SUBSTITUTED HETEROCYCLES” (FMC Corporation, priority 2021, published 2024):

Experiments:
Assay type in all cases: in vivo
Settings in all cases: 100 = 100% disease control, 0 = no control
[1] = tested on: Botrytis cinerea; assay: Test E: preventive spray on tomato seedlings, tomato Botrytis disease rating
Method in brief: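 Preventive test: one day after spraying seedlings to run-off with test suspension (ppm in acetone/water, 50–250 ppm PEG400), B. cinerea spores applied. Incubation 48 h at 20 °C saturated humidity plus 3 days at 24 °C preceded visual rating as percent disease control versus controls.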

[2] = tested on: Alternaria solani; assay: Test F: preventive spray on tomato seedlings, tomato early blight disease rating
Method in brief: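 Preventive test: a day after run-off spraying with acetone/water–PEG400 suspensions (ppm), seedlings received an A. solani spore inoculum. Incubation was 48 h at 27 °C in saturated air followed by 3 days in a 20 °C chamber. Visual scores express percent disease control versus untreated plants (0–100).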

[3] = tested on: Puccinia recondita f. sp. Tritici; assay: Test B: preventive spray on wheat seedlings, wheat leaf rust disease rating
Method in brief: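 Preventive test: one day after spraying wheat seedlings to run-off with ppm suspensions (acetone/water 1:1, 50-250 ppm PEG400), leaf rust spores were applied. Incubation was 24 h at saturation then 7 days at 20° C.; disease scored 0-100% control relative to untreated.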

[4] = tested on: Phakopsora pachyrhizi; assay: Test D: preventive spray on soybean seedlings, Asian soybean rust disease rating
Method in brief: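 Seedlings of soybean were challenged with rust spores one day after a run-off spray of test suspension (acetone/water 50/50, 50–250 ppm PEG400); after 24 h saturated humidity and 8 days growth, both at 22° C, disease was scored visually.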

[5] = tested on: Blumeria graminis f. sp. Tritici; assay: Test C: preventive spray on wheat seedlings, wheat powdery mildew disease rating
Method in brief: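 Disease control scored visually after 8 days at 20° C, on a 0–100 scale versus untreated controls. Seedlings had received a preventive run-off spray one day before dusting with powdery mildew spores; compounds were suspended in acetone/water (50/50) containing 50–250 ppm PEG400.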

[6] = tested on: Zymoseptoria tritici; assay: Test A: preventive spray on wheat seedlings, wheat leaf blotch disease rating
Method in brief: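 Disease scored after 17 days in a 20 °C growth chamber, following 48 h at 24 °C in saturated air after spore inoculation with Z. tritici. Inoculation came one day after wheat seedlings were sprayed to run-off with test suspension (acetone/water 50/50, 50–250 ppm PEG400).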

CCn1c(-c2c(F)cc(F)cc2F)c(-c2cc(OC)c(Cl)c(OC)c2)cc(C#N)c1=O [Compound 72]
Test E disease control rating ([1]; 50 ppm): 90%
Test F disease control rating ([2]; 50 ppm): 0%
Test B disease control rating ([3]; 50 ppm): 98%
Test D disease control rating ([4]; 50 ppm): 77%
Test C disease control rating ([5]; 50 ppm): 21%
Test A disease control rating ([6]; 50 ppm): 93%

CCOC(=O)c1nn(-c2cc(OC)ccc2Cl)c(-c2ccc(F)cc2F)c(C(=O)OCC)c1=O [Compound 81]
Test E disease control rating ([1]; 50 ppm): 0%
Test F disease control rating ([2]; 50 ppm): 0%
Test B disease control rating ([3]; 50 ppm): 19%
Test D disease control rating ([4]; 50 ppm): 0%
Test C disease control rating ([5]; 50 ppm): 0%
Test A disease control rating ([6]; 50 ppm): 0%

CCOC(=O)c1nn(-c2cc(OC)ccc2Cl)c(-c2ccc(F)cc2)c(C(=O)OCC)c1=O [Compound 82]
Test E disease control rating ([1]; 50 ppm): 0%
Test F disease control rating ([2]; 50 ppm): 0%
Test B disease control rating ([3]; 50 ppm): 28%
Test D disease control rating ([4]; 50 ppm): 0%
Test C disease control rating ([5]; 50 ppm): 0%
Test A disease control rating ([6]; 50 ppm): 3%

COc1cc(OC)c(Cl)c(-n2nc(C#N)c(=O)c(C)c2-c2ccc(F)cc2Cl)c1 [Compound 83]
Test E disease control rating ([1]; 50 ppm): 94%
Test F disease control rating ([2]; 50 ppm): 100%
Test B disease control rating ([3]; 50 ppm): 100%
Test D disease control rating ([4]; 50 ppm): 100%
Test C disease control rating ([5]; 50 ppm): 98%
Test A disease control rating ([6]; 50 ppm): 99%

COc1cc(OC)c(Cl)c(-n2nc(C)c(=O)c(C)c2-c2ccc(F)cc2Cl)c1 [Compound 84]
Test E disease control rating ([1]; 50 ppm): 94%
Test F disease control rating ([2]; 50 ppm): 100%
Test B disease control rating ([3]; 50 ppm): 100%
Test D disease control rating ([4]; 50 ppm): 100%
Test C disease control rating ([5]; 50 ppm): 99%
Test A disease control rating ([6]; 50 ppm): 100%

COc1cc(OC)c(Cl)c(-n2nc(CF)c(=O)c(C)c2-c2ccc(F)cc2Cl)c1 [Compound 85]
Test E disease control rating ([1]; 50 ppm): 93%
Test F disease control rating ([2]; 50 ppm): 100%
Test B disease control rating ([3]; 50 ppm): 100%
Test D disease control rating ([4]; 50 ppm): 100%
Test C disease control rating ([5]; 50 ppm): 99%
Test A disease control rating ([6]; 50 ppm): 100%

COc1cc(OC)c(Cl)c(-n2nc(NC(=O)OC(C)(C)C)c(=O)c(C)c2-c2ccc(F)cc2Cl)c1 [Compound 86]
Test E disease control rating ([1]; 250 ppm): 43%
Test F disease control rating ([2]; 250 ppm): 0%
Test B disease control rating ([3]; 250 ppm): 98%
Test D disease control rating ([4]; 250 ppm): 0%
Test C disease control rating ([5]; 250 ppm): 0%
Test A disease control rating ([6]; 250 ppm): 83%

COc1cc(OC)c(Cl)c(-n2nc(N)c(=O)c(C)c2-c2ccc(F)cc2Cl)c1 [Compound 87]
Test E disease control rating ([1]; 50 ppm): 96%
Test F disease control rating ([2]; 50 ppm): 99%
Test B disease control rating ([3]; 50 ppm): 98%
Test D disease control rating ([4]; 50 ppm): 100%
Test C disease control rating ([5]; 50 ppm): 96%
Test A disease control rating ([6]; 50 ppm): 100%

CCOC(=O)c1nn(-c2cc(OC)cc(OC)c2)c(-c2ccc(F)cc2F)c(C(=O)OCC)c1=O [Compound 88]
Test E disease control rating ([1]; 250 ppm): 0%
Test F disease control rating ([2]; 250 ppm): 0%
Test B disease control rating ([3]; 250 ppm): 0%
Test D disease control rating ([4]; 250 ppm): 0%
Test C disease control rating ([5]; 250 ppm): 0%
Test A disease control rating ([6]; 250 ppm): 0%

CCOC(=O)c1c(-c2ccc(F)cc2F)n(-c2cc(OC)cc(OC)c2)nc(C(=O)O)c1=O [Compound 89]
Test E disease control rating ([1]; 250 ppm): 0%
Test F disease control rating ([2]; 250 ppm): 0%
Test B disease control rating ([3]; 250 ppm): 0%
Test D disease control rating ([4]; 250 ppm): 0%
Test C disease control rating ([5]; 250 ppm): 0%
Test A disease control rating ([6]; 250 ppm): 0%

COc1cc(OC)cc(-n2nc(CF)c(=O)c(C)c2-c2ccc(F)cc2Cl)c1 [Compound 90]
Test E disease control rating ([1]; 50 ppm): 99%
Test F disease control rating ([2]; 50 ppm): 99%
Test B disease control rating ([3]; 50 ppm): 100%
Test D disease control rating ([4]; 50 ppm): 100%
Test C disease control rating ([5]; 50 ppm): 97%
Test A disease control rating ([6]; 50 ppm): 99%

COc1cc(OC)cc(-n2nc(CO)c(=O)c(C)c2-c2ccc(F)cc2Cl)c1 [Compound 91]
Test E disease control rating ([1]; 250 ppm): 79%
Test F disease control rating ([2]; 250 ppm): 17%
Test B disease control rating ([3]; 250 ppm): 99%
Test D disease control rating ([4]; 250 ppm): 75%
Test C disease control rating ([5]; 250 ppm): 0%
Test A disease control rating ([6]; 250 ppm): 0%
